{"source": "patent US20190284293A1", "about": "“COMBINATION THERAPY WITH ANTI-CD73 ANTIBODIES” (BRISTOL-MYERS SQUIBB COMPANY, priority 2016, published 2019)", "key": {"[1]": {"target": "T1, endogenous CD73 activity in Calu-6 cells (Homo sapiens, UniProt P21589)", "T1 construct": "Calu6 (CD73 endogenous expressors; human pulmonary adenocarcinoma cell line); endogenous in cells; host or cells: Calu6 (Calu-6) human pulmonary adenocarcinoma cells", "T1 sequence (P21589 27-549)": "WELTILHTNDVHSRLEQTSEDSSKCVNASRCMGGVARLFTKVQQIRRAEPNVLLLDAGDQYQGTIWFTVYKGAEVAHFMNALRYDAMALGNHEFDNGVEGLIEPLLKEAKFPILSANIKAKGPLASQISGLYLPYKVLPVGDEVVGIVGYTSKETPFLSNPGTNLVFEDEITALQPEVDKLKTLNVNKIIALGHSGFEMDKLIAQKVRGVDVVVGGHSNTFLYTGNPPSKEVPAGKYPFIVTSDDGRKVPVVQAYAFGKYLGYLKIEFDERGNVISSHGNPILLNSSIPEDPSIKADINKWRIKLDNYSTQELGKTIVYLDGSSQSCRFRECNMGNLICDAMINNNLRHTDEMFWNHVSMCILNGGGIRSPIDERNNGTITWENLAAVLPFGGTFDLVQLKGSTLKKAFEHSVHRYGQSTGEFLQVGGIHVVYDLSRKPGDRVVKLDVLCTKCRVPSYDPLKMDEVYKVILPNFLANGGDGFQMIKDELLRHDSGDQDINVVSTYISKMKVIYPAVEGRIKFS", "test": "Dual cell line HTRF cAMP assay (Calu-6 and HEK293/A2AR cells)", "format": "cell-based", "method": "CD73 antibodies were serial diluted with PBS buffer containing 0.2% BSA, and plated 5 μl/well in 384 well white bottom proxiplate (PerkinElmer, Waltham, Mass.). Calu-6 cells were harvested and resuspend in PBS containing 0.2% BSA, then 5 μl of cells (300 cells/well) were added to the plate. The cells were incubated with antibodies for 10 minutes at 37° C. […] The cells were further incubated with AMP for 30 minutes at 37° C. During this time, HEK293/A2AR cells were harvested and diluted to 0.4 million/ml in PBS containing 0.2% BSA. They were added into the assay plate at 5 μl/well and continued to incubate at 37° C. for 1 hr. HRTF assays were performed using the homogenous time-resolved fluorescence (HTRE) HiRange cAMP detection kit (Cisbio, Bedford, Mass.) by adding 10 cAMP-conjugated d2 and 10 europium conjugated anti-cAMP antibody in lysis buffer according to the manufacturer's instructions. Plates were incubated at room temperature for 60 minutes and Fluorescence Resonance Energy Transfer (FRET) signals (665 and 615 nM) were read using an EnVision plate reader (PerkinElmer, Waltham, Mass.). The FRET signal was calculated as the ratio of signal from the 665 nm (acceptor) and 615 nm (donor) channels and multiplied by 10,000. IC50 and Ymax were measured. […] All calculations were determined as a percentage of inhibition compared to this control, which was set to 100%."}, "[2]": {"target": "cyno FcγRs", "test": "SPR binding of constructs to cyno FcγRs", "conditions": "read-out: binding affinity to cyno FcγRs"}, "[3]": {"target": "human FcRn (Homo sapiens, UniProt P55899)", "sequence (P55899 24-297 limits assumed)": "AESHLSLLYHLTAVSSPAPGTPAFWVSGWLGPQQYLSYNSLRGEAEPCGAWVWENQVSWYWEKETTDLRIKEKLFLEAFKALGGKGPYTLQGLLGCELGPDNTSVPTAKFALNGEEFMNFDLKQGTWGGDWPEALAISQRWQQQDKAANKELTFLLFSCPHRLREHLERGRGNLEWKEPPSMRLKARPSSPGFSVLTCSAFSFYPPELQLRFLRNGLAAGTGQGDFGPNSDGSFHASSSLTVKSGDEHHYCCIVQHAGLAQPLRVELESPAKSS", "sequence (P61769 21-119 partner)": "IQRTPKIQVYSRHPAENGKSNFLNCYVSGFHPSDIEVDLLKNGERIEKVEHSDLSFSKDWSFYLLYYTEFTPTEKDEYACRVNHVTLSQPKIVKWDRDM", "test": "SPR binding to human FcRn", "conditions": "strong at pH6, weak binding with fast dissociation at pH 7.4"}, "[4]": {"target": "all other FcγRs", "test": "SPR binding of constructs to human FcγRs", "conditions": "read-out: binding affinity to all other FcγRs", "procedure": "Binding of the constructs to human FcγRs was measured via SPR. hCD64 and hCD32a-H131 binding data for IgG1.1 and IgG2 molecules were consistent with expected values for the different Fcs. IgG1.1f is the most inert Fc."}}, "note": "pIC50, pKd: −log10 of the molar value.", "data": [{"compound": "Nc1ncnc2c1ncn2[C@@H]1O[C@H](COP(=O)(O)CP(=O)(O)O)[C@@H](O)[C@H]1O", "note": "[APCP]", "values": [{"measurement": "pIC50", "setting": "[1]; cAMP assay", "result": 8.89}, {"measurement": "Ymax", "setting": "[1]; percentage of inhibition compared to 100 nM 11F11 set to 100%", "result": 97}]}, {"compound": "IgG2-C219S-G1.1f: effectorless IgG1/IgG2 hybrid constant region: CH1 and hinge from IgG2 (C219S), CH2 and CH3 of IgG1 (A330S/P331S); SEQ ID NO:169", "values": [{"measurement": "pKd", "setting": "[2]", "result": "< 5.30"}, {"measurement": "binding to human FcRn", "setting": "[3]", "result": "pH-dependent binding"}, {"measurement": "pKd", "setting": "[4]", "result": "> 5.30"}]}]}
